Assays:
Assay in all cases: biochemical
[1] = target: ABL1-non-Phos. (Homo sapiens, UniProt P00519)
[2] = target: ABL1-Phos. (Homo sapiens, UniProt P00519)
[3] = target: T1, EphA1 (Homo sapiens, UniProt P21709)
T1 sequence (P21709 1-976): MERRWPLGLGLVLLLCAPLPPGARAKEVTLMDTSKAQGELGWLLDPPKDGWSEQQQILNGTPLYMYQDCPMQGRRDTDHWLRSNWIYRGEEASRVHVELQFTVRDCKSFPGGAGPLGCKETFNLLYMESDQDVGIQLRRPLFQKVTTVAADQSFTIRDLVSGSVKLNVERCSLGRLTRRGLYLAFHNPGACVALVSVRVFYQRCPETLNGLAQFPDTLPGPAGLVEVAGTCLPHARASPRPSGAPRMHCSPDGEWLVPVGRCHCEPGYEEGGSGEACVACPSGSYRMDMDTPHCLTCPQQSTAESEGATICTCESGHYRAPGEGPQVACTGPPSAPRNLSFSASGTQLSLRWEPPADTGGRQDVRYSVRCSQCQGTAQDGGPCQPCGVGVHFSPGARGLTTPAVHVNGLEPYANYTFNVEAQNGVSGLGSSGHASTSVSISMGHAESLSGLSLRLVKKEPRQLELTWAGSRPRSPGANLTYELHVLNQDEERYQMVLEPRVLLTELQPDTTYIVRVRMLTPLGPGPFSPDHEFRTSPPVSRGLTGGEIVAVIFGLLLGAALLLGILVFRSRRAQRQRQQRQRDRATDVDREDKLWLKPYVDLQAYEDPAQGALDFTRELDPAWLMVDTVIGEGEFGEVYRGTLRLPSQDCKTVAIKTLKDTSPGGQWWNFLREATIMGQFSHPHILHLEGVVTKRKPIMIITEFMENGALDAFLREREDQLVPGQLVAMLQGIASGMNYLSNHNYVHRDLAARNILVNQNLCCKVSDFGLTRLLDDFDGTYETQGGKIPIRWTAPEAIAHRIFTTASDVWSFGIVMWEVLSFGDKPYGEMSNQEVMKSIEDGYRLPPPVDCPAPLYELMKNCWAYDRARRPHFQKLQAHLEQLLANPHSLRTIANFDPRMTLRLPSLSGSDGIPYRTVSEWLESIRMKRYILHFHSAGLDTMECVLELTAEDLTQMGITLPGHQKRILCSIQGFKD

[4] = target: T2, EphA8 (Homo sapiens, UniProt P29322)
T2 sequence (P29322 1-1005): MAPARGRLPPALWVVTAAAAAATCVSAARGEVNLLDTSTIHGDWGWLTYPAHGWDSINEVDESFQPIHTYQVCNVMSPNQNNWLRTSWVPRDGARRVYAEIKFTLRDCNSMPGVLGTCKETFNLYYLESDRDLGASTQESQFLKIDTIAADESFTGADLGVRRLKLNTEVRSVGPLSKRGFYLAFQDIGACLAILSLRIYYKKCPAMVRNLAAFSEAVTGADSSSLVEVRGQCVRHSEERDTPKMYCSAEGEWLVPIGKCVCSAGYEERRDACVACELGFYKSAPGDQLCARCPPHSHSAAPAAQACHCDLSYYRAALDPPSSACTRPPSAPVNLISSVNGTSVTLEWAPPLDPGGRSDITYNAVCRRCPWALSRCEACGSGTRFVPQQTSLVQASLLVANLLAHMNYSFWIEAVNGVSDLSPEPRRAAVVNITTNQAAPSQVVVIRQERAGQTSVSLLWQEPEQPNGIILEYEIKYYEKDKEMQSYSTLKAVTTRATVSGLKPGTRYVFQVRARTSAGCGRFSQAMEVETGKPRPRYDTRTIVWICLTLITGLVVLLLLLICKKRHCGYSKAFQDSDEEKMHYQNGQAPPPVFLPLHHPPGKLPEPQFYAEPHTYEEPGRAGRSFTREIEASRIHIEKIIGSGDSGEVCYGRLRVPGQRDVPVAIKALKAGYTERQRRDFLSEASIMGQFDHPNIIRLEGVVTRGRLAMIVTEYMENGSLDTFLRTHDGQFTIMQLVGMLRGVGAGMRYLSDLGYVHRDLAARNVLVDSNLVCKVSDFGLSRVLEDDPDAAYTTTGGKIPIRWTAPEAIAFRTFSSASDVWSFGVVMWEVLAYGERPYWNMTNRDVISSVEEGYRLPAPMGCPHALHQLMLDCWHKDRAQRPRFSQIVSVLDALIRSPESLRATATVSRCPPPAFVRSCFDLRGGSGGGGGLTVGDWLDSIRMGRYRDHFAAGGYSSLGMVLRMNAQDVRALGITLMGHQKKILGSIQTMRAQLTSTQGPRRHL

[5] = target: T3, ACVR1 (Homo sapiens, UniProt Q04771)
T3 sequence (Q04771 1-509): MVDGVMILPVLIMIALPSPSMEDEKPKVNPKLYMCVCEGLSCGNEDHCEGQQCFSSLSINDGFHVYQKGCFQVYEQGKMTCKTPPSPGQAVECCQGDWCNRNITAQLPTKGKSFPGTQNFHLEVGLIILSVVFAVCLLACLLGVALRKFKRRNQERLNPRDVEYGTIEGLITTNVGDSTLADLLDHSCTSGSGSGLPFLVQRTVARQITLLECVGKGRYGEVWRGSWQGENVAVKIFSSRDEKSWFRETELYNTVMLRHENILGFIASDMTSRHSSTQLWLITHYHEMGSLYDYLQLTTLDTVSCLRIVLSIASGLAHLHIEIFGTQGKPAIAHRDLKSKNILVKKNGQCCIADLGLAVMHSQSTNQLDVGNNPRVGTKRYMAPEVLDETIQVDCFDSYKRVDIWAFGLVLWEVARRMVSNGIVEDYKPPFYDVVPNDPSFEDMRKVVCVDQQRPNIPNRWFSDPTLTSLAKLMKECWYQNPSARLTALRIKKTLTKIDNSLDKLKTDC

[6] = target: BMPR1B (Homo sapiens, UniProt O00238)
[7] = target: LCK (Homo sapiens, UniProt P06239)
Sequence of LCK (P06239 whole entry): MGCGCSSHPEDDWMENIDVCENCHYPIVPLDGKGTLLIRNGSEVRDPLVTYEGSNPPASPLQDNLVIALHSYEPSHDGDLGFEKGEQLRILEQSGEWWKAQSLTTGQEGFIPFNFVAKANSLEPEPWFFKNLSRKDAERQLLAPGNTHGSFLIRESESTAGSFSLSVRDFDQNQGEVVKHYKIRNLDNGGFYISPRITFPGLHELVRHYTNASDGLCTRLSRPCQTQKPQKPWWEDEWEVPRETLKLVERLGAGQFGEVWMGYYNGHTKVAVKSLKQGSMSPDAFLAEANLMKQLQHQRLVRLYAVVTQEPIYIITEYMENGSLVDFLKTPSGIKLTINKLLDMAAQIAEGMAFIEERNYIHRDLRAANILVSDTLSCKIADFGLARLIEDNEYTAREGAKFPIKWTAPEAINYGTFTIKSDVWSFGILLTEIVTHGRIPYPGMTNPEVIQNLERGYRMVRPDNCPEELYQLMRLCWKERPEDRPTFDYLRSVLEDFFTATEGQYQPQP

Sequence of ABL1-non-Phos. (P00519 whole entry): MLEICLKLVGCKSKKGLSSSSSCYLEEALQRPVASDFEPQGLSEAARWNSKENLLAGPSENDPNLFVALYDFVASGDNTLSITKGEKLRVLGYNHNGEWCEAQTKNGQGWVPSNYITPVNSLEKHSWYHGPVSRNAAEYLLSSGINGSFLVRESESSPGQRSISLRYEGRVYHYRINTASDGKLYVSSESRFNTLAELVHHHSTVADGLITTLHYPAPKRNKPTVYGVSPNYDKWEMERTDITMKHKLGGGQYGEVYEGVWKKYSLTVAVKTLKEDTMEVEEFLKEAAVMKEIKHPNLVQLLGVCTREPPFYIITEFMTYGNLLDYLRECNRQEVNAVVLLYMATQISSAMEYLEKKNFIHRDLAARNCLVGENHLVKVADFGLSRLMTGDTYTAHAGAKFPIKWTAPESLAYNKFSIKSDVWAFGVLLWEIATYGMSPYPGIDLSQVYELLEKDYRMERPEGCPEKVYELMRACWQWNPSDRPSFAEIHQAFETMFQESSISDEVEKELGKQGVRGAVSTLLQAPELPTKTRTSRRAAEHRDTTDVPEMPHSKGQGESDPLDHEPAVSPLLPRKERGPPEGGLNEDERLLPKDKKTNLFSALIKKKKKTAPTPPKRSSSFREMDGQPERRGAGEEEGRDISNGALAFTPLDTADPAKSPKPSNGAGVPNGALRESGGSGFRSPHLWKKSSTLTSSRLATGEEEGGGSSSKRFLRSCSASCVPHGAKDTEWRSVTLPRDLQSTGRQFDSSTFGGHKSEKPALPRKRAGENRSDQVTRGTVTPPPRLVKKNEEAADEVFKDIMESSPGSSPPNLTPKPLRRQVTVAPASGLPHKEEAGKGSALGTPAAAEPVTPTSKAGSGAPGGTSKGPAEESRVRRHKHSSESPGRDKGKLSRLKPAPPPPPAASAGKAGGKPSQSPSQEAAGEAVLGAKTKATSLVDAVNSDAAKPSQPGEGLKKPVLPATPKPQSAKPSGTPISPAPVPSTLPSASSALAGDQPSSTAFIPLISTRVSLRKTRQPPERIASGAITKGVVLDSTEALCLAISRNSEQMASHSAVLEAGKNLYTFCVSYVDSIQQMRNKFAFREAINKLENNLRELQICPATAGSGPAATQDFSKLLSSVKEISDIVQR
Sequence of ABL1-Phos. (P00519 whole entry): as above
Sequence of BMPR1B (O00238 whole entry): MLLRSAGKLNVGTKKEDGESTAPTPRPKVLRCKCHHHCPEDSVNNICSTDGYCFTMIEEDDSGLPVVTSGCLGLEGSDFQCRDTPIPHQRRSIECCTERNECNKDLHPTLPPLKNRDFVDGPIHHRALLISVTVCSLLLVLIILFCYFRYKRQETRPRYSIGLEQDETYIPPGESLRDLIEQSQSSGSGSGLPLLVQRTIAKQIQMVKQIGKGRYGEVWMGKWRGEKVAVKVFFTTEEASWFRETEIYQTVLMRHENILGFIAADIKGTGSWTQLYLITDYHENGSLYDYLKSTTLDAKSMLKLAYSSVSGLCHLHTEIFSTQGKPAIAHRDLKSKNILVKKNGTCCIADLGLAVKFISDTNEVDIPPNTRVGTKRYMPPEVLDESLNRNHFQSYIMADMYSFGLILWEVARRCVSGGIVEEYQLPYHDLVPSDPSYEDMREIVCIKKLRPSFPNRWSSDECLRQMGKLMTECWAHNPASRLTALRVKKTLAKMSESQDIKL

Kd [1]: > 10 µM | Kd [2]: > 10 µM | Kd [3]: > 10 µM | Kd [4]: > 10 µM | Kd [5]: > 10 µM | Kd [6]: > 10 µM | Kd [7]: > 10 µM
Structure (SMILES): COc1cc(N(C)c2ccnc3ccc(C(F)(F)F)cc23)cc(OC)c1OC [compound 21, negative control (21)]
